Test results: the supplement of paper PMC13380429

Columns and labels:
Conditions in all cases: 72 h
[1] = tested on: Vero E6; assay: relative viability EC50 (midpoint between 100% and the lowest measured viability); higher = less toxic
[2] = tested on: Calu-3; assay: as above
[3] = tested on: HepG2; assay: as above
[4] = tested on: U2OS; assay: as above
[5] = tested on: Caco-2; assay: as above
[6] = tested on: Vero E6; assay: cell viability relative to DMSO; higher = less toxic
[7] = tested on: Calu-3; assay: as above
[8] = tested on: HepG2; assay: as above
[9] = tested on: U2OS; assay: as above
[10] = tested on: Caco-2; assay: as above
[11] = tested on: Vero E6; assay: drug sensitivity score (DSS) for viability; higher = more toxic; extreme values may be limits of the assay
[12] = tested on: Calu-3; assay: as above
[13] = tested on: HepG2; assay: as above
[14] = tested on: U2OS; assay: as above
[15] = tested on: Caco-2; assay: as above

Row | SMILES | relative viability EC50 [1] | relative viability EC50 [2] | relative viability EC50 [3] | relative viability EC50 [4] | relative viability EC50 [5] | cell viability ([6]; 1 nM) | cell viability ([6]; 10 nM) | cell viability ([6]; 100 nM) | cell viability ([6]; 1000 nM) | cell viability ([6]; 10000 nM) | cell viability ([7]; 1 nM) | cell viability ([7]; 10 nM) | cell viability ([7]; 100 nM) | cell viability ([7]; 1000 nM) | cell viability ([7]; 10000 nM) | cell viability ([8]; 1 nM) | cell viability ([8]; 10 nM) | cell viability ([8]; 100 nM) | cell viability ([8]; 1000 nM) | cell viability ([8]; 10000 nM) | cell viability ([9]; 1 nM) | cell viability ([9]; 10 nM) | cell viability ([9]; 100 nM) | cell viability ([9]; 1000 nM) | cell viability ([9]; 10000 nM) | cell viability ([10]; 1 nM) | cell viability ([10]; 10 nM) | cell viability ([10]; 100 nM) | cell viability ([10]; 1000 nM) | cell viability ([10]; 10000 nM) | drug sensitivity score [11] | drug sensitivity score [12] | drug sensitivity score [13] | drug sensitivity score [14] | drug sensitivity score [15]
1 | CCCN1CCC[C@@H]2Cc3n[nH]cc3C[C@H]21 [quinpirol-(-)] | > 10 µM | > 10 µM | > 10 µM | > 10 µM | > 10 µM | 96.8% | 93.1% | 97.6% | 93.6% | 107% | 98.2% | 95.9% | 98.5% | 93.1% | 95.9% | 93.6% | 102% | 103% | 99.3% | 97.2% | 92.5% | 98.7% | 94.9% | 101% | 102% | 102% | 93.7% | 99.8% | 99.1% | 106% | 0 | 0 | 0 | 0 | 0
2 | CCCCC(CC)CCC(CC(C)C)OS(=O)(=O)O (stereo not given) [sodium-tetradecyl-sulfate] | > 10 µM | > 10 µM | > 10 µM | > 10 µM | > 10 µM | 101% | 96.1% | 99.7% | 91% | 101% | 98.8% | 91.9% | 103% | 102% | 97.5% | 93.1% | 96.5% | 112% | 86.2% | 98.6% | 103% | 96% | 98.3% | 104% | 99.5% | 100% | 83% | 95.5% | 87.6% | 104% | 0 | 0 | 0 | 0 | 0
3 | COC(=O)c1csc(C(=O)c2c[nH]c3ccccc23)n1 [ITE] | > 10 µM | > 10 µM | > 10 µM | > 10 µM | > 10 µM | 95% | 96.1% | 92.1% | 98.6% | 97.4% | 105% | 101% | 103% | 105% | 97.5% | 104% | 112% | 92.8% | 84.8% | 85.5% | 101% | 104% | 97.1% | 102% | 96.3% | 96.1% | 105% | 101% | 108% | 94.2% | 0 | 0 | 2 | 0 | 0
4 | CC1(C)C(=O)N(c2ccc(C#N)c(C(F)(F)F)c2)C(=O)N1CCCCO | > 10 µM | > 10 µM | > 10 µM | > 10 µM | > 10 µM | 95.6% | 103% | 100% | 103% | 99.2% | 104% | 114% | 96% | 97.6% | 91.9% | 98.8% | 93.9% | 103% | 91.1% | 91.6% | 99.9% | 102% | 96.5% | 97.6% | 98.3% | 104% | 94.8% | 90.6% | 90.7% | 89.4% | 0 | 0 | 0 | 0 | 0.4
5 | O=C(O)c1ccc(/C=C2\SC(=S)N(c3cccc(C(F)(F)F)c3)C2=O)cc1 [CFTRinh-172] | > 10 µM | > 10 µM | > 10 µM | > 10 µM | > 10 µM | 96.3% | 96.3% | 96.4% | 93.9% | 107% | 102% | 99.9% | 97.8% | 106% | 116% | 111% | 104% | 96.2% | 94.7% | 106% | 95.2% | 101% | 94.2% | 104% | 99.4% | 104% | 100% | 86.7% | 99.4% | 99.9% | 0 | 0 | 0 | 0 | 0
6 | COc1cccc(/C=N/N=C/c2cccc(OC)c2)c1 [DMeOB] | > 10 µM | > 10 µM | > 10 µM | > 10 µM | > 10 µM | 109% | 99.8% | 103% | 99.2% | 103% | 101% | 114% | 99.6% | 111% | 105% | 110% | 93.3% | 103% | 98.4% | 94.9% | 101% | 102% | 97.5% | 107% | 99.3% | 96.4% | 106% | 96.9% | 104% | 103% | 0 | 0 | 0 | 0 | 0
7 | CCN1CCN(c2cc(-c3ccc(F)cc3)c3c(n2)CCCCCC3)CC1 [blonanserin] | > 10 µM | > 10 µM | > 10 µM | > 10 µM | > 10 µM | 98.2% | 101% | 95% | 93.2% | 102% | 89.4% | 93.4% | 94.5% | 111% | 92.7% | 95.1% | 88% | 92.3% | 92.9% | 92.9% | 100% | 97.3% | 96.4% | 103% | 92.9% | 94% | 108% | 98.3% | 102% | 95.5% | 0 | 0 | 0 | 0 | 0
8 | Cc1cnc(-c2ccccc2C(C)C)nc1NCc1ccc(-n2ccnn2)cc1 [ML323] | > 10 µM | > 10 µM | > 10 µM | > 10 µM | > 10 µM | 89.6% | 90% | 87.6% | 89.7% | 99.4% | 91.6% | 108% | 105% | 97.3% | 110% | 99.1% | 94.2% | 112% | 96.5% | 82.2% | 94.9% | 103% | 95.8% | 102% | 97.9% | 90.2% | 101% | 92.2% | 95.8% | 81% | 0 | 0 | 0.8 | 0 | 0.5
9 | Cc1ccc(-c2csc3ncnc(SCCC(=O)O)c23)cc1 [TTP-22] | > 10 µM | > 10 µM | > 10 µM | > 10 µM | > 10 µM | 97.1% | 94% | 102% | 101% | 102% | 101% | 87.5% | 93.4% | 99.4% | 96.3% | 103% | 92.3% | 95.6% | 100% | 108% | 97.3% | 102% | 99% | 99% | 104% | 103% | 96.5% | 97.3% | 95% | 97.4% | 0 | 0 | 0 | 0 | 0
10 | C[C@]12CC[C@@H]3c4ccc(OS(=O)(=O)O)cc4CC[C@H]3[C@@H]1CCC2=O [estropipate] | > 10 µM | > 10 µM | > 10 µM | > 10 µM | > 10 µM | 99.5% | 95.2% | 102% | 84.8% | 101% | 99.1% | 99.1% | 99.3% | 111% | 103% | 111% | 110% | 103% | 103% | 97.4% | 93.4% | 95.6% | 95% | 98% | 108% | 102% | 96.7% | 112% | 109% | 93.4% | 0 | 0 | 0 | 0 | 0
11 | O=C(O)c1ccc(-c2c[nH]c3ncc(-c4ccccc4)cc23)cc1C1CCCC1 | > 10 µM | > 10 µM | > 10 µM | > 10 µM | > 10 µM | 109% | 106% | 104% | 97% | 101% | 98.8% | 92.9% | 97.6% | 107% | 107% | 103% | 100% | 107% | 89.6% | 84.2% | 96.4% | 94.9% | 90.4% | 97.3% | 85.8% | 92.8% | 107% | 101% | 105% | 93.5% | 0 | 0 | 1.1 | 0 | 0
12 | CCN(CC)CCOc1ccc(Nc2ncc3cc(-c4c(Cl)cccc4Cl)c(=O)n(C)c3n2)cc1 | 0.465 µM | 0.712 µM | 0.266 µM | 0.329 µM | 0.532 µM | 95% | 95.3% | 88.9% | 26.6% | -0.1% | 98.8% | 99.5% | 80.3% | 49% | 2.3% | 111% | 97.9% | 82.2% | 11.3% | 0.1% | 99.1% | 104% | 90.8% | 10.4% | -0.1% | 102% | 102% | 80.7% | 41.7% | 5.4% | 15.3 | 12.5 | 18.4 | 17.5 | 13.5
13 | NC(=O)CNCCC(c1ccccc1)c1ccccc1 [N20C] | > 10 µM | > 10 µM | > 10 µM | > 10 µM | > 10 µM | 96.9% | 106% | 98.2% | 98.1% | 97.6% | 109% | 97.5% | 96.6% | 99.4% | 106% | 97.3% | 93.6% | 106% | 111% | 94.9% | 106% | 99.4% | 100% | 99.2% | 102% | 107% | 98.4% | 89.4% | 97.2% | 103% | 0 | 0 | 0 | 0 | 0
14 | Cc1ccc2c(-c3ccccc3)nc(=O)n(C(C)C)c2c1 [proquazone] | > 10 µM | > 10 µM | > 10 µM | > 10 µM | > 10 µM | 93.4% | 92.4% | 89.3% | 105% | 103% | 92.9% | 94.9% | 104% | 105% | 117% | 96.7% | 109% | 102% | 102% | 110% | 99.7% | 94.5% | 96.2% | 92.4% | 105% | 86.9% | 89.3% | 81.4% | 103% | 99.8% | 0 | 0 | 0 | 0 | 0
15 | O=C1C=Cc2cc(Br)ccc2C1=O [bonaphthone] | > 10 µM | > 10 µM | > 10 µM | > 10 µM | > 10 µM | 95.5% | 98.6% | 93.5% | 99.5% | 102% | 116% | 104% | 94.3% | 88% | 99.1% | 101% | 117% | 97.5% | 107% | 94.2% | 101% | 96.1% | 103% | 101% | 85.6% | 87.2% | 86.3% | 97.9% | 102% | 94.4% | 0 | 0.8 | 0 | 0.1 | 0
